From ChEMBL document CHEMBL4825762, “Identification, Synthesis, and Characterization of a Major Circulating Human Metabolite of TRPV4 Antagonist GSK2798745” (ACS Med Chem Lett, 2021) come the findings set out here.

The target in data set [1] is Transient receptor potential cation channel subfamily V member 4 (Homo sapiens, UniProt Q9HBA0). In words: Antagonist activity at human TRPV4.
A short description of data set [2]: Chromatographic hydrophobicity index, log D of the compound. It counts as physicochemical.
Data set [3] can be described thus: Permeability of the compound. It counts as ADME. The following applies: not told; read-out: permeability.
The target in data set [4] is T1, Short transient receptor potential channel 3 (Homo sapiens) (UniProt Q13507).
T1 sequence (whole entry): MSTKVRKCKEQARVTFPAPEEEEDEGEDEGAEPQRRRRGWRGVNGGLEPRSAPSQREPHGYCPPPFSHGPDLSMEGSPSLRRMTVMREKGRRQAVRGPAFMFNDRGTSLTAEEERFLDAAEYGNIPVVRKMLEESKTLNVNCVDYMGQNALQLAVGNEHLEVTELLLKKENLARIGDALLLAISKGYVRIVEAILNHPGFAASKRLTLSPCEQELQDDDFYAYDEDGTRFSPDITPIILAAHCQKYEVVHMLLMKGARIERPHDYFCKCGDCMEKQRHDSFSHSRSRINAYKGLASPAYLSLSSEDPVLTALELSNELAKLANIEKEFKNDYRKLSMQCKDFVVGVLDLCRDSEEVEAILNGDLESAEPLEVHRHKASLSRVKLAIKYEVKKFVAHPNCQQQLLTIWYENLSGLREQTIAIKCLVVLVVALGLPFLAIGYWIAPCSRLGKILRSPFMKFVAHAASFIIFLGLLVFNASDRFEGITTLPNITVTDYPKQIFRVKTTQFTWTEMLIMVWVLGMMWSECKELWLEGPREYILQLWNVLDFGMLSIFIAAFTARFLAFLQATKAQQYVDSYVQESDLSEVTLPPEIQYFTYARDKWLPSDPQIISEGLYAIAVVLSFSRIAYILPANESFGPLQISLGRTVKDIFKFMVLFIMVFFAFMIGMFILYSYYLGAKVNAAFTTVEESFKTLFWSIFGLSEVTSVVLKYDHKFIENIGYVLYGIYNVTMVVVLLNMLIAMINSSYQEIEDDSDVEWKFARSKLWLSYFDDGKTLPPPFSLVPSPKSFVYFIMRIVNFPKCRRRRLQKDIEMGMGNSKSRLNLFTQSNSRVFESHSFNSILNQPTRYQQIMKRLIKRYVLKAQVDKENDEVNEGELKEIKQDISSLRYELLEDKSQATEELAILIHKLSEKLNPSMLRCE
In words: Antagonist activity at human TRPC3 at <= 30 uM. The following applies: dose microM <=30.

The target of data set [5] is Transient receptor potential cation channel subfamily V member 1 (Homo sapiens) (UniProt Q8NER1). Description: Antagonist activity at human TRPV1 at <= 30 uM. To be noted: dose microM <=30.
The target in data set [6] is T2, Short transient receptor potential channel 6 (Homo sapiens) (UniProt Q9Y210).
T2 sequence (whole entry): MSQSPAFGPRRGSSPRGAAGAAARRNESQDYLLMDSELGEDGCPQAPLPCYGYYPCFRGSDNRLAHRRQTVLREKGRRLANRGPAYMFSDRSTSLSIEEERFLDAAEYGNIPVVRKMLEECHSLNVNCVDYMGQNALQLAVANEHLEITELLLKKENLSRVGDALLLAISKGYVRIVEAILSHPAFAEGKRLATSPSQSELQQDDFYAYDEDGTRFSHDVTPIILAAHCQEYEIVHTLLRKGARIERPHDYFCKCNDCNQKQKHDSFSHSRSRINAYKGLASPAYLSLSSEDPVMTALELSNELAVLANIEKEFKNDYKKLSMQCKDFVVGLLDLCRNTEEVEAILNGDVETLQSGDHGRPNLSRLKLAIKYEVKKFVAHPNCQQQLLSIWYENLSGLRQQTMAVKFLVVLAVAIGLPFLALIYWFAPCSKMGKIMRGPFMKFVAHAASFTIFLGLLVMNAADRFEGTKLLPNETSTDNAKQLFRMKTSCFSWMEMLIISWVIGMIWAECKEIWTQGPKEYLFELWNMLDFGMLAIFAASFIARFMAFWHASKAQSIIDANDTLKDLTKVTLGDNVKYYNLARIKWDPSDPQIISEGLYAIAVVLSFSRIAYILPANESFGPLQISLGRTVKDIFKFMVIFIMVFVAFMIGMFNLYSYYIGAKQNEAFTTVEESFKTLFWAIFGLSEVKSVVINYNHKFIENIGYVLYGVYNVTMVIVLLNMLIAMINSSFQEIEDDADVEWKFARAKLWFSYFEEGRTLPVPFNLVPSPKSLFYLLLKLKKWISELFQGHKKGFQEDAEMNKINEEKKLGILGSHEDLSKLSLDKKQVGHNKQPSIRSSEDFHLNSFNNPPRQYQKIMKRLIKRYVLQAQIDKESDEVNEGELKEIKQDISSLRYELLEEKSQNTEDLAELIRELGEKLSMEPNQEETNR
In words: Antagonist activity at human TRPC6 at <= 30 uM. The following applies: dose microM <=30.

Data set [7] concerns the target Voltage-gated inwardly rectifying potassium channel KCNH2 (Homo sapiens, UniProt Q12809). In words: Inhibition of human ERG at <= 10 uM.
Data set [8] concerns the target T3, Short transient receptor potential channel 4 (Homo sapiens) (UniProt Q9UBN4).
T3 sequence (whole entry): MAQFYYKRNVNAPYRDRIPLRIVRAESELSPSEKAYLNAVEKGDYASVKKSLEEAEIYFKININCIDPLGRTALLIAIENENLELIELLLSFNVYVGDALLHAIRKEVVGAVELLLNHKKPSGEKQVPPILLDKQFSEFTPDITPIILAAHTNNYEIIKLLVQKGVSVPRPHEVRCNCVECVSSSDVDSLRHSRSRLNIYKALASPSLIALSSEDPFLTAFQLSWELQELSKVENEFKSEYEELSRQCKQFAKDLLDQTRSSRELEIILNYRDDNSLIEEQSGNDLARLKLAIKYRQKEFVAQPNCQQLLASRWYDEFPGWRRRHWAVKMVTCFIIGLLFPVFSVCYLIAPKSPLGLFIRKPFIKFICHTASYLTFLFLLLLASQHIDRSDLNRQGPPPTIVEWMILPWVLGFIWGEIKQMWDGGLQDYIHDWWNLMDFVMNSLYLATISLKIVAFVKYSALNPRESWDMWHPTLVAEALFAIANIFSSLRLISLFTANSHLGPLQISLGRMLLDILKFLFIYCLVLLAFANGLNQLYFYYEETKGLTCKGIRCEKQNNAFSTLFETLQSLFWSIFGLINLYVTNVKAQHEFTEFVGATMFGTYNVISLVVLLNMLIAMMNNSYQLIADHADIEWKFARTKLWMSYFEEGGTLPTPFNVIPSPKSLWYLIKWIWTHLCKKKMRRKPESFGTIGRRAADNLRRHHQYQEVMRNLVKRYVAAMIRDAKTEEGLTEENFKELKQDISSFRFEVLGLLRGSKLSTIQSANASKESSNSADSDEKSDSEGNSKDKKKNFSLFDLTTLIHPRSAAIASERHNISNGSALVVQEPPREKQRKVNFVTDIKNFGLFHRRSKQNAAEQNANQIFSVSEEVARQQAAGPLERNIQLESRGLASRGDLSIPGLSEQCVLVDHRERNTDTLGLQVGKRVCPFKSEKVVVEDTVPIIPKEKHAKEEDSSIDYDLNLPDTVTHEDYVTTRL
Description: Antagonist activity at human TRPC4 at <= 30 uM. To be noted: dose microM <=30.

The target in data set [9] is Transient receptor potential cation channel subfamily M member 4 (Homo sapiens) (UniProt Q8TD43). Description: Antagonist activity at human TRPM4 at <= 30 uM. The following applies: dose microM <=30.
Data set [10] deals with Transient receptor potential cation channel subfamily M member 8 (Homo sapiens) (UniProt Q7Z2W7). In words: Antagonist activity at human TRPM8 at <= 30 uM. The following applies: dose microM <=30.
Data set [11] has as its target T4, Short transient receptor potential channel 5 (Homo sapiens) (UniProt Q9UL62).
T4 sequence (whole entry): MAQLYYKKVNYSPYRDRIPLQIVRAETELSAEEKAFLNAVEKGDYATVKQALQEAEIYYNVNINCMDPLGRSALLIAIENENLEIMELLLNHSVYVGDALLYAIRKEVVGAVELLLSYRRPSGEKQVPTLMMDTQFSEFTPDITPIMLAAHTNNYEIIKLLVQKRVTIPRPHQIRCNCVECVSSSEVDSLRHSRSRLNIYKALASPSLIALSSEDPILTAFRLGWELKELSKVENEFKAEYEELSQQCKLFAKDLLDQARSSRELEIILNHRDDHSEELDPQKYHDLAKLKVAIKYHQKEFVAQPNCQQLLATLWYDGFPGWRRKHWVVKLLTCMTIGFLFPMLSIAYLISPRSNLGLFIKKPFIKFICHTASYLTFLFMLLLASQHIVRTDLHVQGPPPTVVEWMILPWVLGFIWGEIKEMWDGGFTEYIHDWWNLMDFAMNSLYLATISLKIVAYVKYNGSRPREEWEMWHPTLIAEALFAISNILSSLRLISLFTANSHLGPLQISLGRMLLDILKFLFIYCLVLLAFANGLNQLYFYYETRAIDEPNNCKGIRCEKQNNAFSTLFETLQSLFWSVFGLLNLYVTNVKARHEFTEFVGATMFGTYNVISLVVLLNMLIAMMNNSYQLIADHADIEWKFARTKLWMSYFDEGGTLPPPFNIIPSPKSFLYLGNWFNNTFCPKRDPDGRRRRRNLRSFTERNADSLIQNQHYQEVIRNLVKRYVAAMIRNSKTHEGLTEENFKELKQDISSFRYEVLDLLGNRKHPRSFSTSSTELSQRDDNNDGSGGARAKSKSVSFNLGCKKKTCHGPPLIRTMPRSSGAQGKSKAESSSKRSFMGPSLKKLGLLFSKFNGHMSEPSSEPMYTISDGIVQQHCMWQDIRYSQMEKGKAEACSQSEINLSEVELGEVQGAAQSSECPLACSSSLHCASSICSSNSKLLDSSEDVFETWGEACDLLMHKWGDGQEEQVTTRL
Description: Antagonist activity at human TRPC5 at <= 30 uM. To be noted: dose microM <=30.

Data set [12] addresses Transient receptor potential cation channel subfamily A member 1 (Homo sapiens) (UniProt O75762). In words: Antagonist activity at human TRPA1 at <= 30 uM. The following applies: dose microM <=30.
Data set [13] has as its target Transient receptor potential cation channel subfamily M member 2 (Homo sapiens) (UniProt O94759). Description: Antagonist activity at human TRPM2 at <= 30 uM. To be noted: dose microM <=30.
In the next data set the target is Cytochrome P450 3A4 (Homo sapiens, UniProt P08684). Description: Inhibition of CYP3A4 (unknown origin) at <= 10 uM. Type of data set: ADME.

Calls of active or inactive are those of the source. The rule behind the calls is not given here.

Chain of Transient receptor potential cation channel subfamily V member 4 (Q9HBA0 whole entry): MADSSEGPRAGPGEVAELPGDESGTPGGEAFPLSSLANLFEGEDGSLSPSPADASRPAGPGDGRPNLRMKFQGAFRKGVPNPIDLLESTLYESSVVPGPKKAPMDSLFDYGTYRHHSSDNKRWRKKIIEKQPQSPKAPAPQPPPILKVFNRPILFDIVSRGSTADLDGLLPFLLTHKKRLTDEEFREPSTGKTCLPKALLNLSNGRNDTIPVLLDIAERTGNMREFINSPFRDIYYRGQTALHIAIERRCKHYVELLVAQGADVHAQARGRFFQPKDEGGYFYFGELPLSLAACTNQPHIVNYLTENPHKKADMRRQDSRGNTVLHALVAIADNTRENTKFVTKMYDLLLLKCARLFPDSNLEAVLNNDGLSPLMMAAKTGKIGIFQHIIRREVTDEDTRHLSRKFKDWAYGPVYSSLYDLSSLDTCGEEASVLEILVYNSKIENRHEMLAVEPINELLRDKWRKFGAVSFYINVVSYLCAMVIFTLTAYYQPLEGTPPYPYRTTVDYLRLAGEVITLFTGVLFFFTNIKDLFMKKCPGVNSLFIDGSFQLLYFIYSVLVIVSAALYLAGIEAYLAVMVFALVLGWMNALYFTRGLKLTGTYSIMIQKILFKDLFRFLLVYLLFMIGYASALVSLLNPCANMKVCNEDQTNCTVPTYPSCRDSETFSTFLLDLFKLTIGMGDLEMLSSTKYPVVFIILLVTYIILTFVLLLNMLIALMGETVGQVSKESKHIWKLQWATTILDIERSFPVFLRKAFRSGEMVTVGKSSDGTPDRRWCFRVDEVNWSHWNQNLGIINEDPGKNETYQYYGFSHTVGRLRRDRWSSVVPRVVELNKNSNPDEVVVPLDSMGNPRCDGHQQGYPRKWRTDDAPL
Chain of Transient receptor potential cation channel subfamily M member 4 (Homo sapiens) (Q8TD43 whole entry): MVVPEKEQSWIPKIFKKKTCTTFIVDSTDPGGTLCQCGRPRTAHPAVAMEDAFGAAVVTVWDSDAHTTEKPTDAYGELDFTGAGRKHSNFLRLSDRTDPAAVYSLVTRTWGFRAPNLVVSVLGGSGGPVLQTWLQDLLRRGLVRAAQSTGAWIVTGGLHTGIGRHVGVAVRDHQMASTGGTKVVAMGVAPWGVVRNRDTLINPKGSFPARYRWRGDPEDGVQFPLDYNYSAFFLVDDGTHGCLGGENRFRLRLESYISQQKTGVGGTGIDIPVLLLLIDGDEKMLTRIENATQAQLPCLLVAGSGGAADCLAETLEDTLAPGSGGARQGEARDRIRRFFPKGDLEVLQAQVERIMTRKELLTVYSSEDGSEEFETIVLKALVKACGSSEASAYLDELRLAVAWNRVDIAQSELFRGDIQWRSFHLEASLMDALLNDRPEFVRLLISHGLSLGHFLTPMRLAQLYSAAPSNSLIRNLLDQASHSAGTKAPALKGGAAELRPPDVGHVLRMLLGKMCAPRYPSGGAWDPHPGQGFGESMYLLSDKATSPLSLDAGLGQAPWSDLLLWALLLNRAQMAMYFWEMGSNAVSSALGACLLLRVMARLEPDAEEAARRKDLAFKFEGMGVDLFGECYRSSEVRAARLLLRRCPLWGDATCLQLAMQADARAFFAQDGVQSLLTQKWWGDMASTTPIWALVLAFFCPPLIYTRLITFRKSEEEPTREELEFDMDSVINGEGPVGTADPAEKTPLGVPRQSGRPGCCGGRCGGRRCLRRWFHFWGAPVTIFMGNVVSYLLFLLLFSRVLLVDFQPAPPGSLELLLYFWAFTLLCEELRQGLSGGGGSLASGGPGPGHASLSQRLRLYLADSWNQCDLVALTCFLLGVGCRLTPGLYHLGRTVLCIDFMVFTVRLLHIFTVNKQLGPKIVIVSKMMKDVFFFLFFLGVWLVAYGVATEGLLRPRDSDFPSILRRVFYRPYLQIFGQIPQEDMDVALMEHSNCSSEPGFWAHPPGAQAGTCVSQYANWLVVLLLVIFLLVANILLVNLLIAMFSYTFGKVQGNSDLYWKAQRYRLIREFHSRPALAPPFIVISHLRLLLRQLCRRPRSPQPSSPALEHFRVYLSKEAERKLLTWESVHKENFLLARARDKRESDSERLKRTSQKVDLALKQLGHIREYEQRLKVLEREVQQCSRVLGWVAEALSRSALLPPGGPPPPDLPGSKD
Chain of Transient receptor potential cation channel subfamily A member 1 (Homo sapiens) (O75762 whole entry): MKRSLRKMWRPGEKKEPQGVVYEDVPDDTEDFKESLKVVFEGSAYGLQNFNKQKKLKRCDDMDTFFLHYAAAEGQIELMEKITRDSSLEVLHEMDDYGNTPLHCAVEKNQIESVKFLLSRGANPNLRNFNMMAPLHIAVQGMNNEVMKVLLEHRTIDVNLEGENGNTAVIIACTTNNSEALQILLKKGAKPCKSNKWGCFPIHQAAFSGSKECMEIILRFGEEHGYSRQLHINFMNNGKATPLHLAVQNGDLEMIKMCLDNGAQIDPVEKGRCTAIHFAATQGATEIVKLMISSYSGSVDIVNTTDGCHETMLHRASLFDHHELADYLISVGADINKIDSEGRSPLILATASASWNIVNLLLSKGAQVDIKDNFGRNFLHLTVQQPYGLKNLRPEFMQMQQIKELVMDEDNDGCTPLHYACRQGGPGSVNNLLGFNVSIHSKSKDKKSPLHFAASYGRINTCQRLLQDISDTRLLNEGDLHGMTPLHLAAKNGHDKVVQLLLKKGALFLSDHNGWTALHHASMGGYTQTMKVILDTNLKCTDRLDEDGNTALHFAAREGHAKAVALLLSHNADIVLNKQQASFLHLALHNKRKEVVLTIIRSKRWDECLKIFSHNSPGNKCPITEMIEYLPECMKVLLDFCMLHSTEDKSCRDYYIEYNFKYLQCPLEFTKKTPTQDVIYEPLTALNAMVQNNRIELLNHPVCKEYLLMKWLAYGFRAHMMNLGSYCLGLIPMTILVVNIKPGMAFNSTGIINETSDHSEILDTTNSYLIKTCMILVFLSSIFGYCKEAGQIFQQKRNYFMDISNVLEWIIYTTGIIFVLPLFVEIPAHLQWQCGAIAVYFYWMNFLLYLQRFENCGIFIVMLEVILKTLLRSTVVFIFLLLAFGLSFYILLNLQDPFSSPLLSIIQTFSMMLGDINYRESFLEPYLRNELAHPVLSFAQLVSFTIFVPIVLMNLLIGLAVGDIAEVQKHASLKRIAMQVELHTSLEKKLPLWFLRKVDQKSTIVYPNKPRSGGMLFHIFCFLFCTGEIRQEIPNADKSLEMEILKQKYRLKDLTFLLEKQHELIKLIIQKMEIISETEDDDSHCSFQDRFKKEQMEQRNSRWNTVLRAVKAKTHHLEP
Chain of Transient receptor potential cation channel subfamily V member 1 (Homo sapiens) (Q8NER1 whole entry): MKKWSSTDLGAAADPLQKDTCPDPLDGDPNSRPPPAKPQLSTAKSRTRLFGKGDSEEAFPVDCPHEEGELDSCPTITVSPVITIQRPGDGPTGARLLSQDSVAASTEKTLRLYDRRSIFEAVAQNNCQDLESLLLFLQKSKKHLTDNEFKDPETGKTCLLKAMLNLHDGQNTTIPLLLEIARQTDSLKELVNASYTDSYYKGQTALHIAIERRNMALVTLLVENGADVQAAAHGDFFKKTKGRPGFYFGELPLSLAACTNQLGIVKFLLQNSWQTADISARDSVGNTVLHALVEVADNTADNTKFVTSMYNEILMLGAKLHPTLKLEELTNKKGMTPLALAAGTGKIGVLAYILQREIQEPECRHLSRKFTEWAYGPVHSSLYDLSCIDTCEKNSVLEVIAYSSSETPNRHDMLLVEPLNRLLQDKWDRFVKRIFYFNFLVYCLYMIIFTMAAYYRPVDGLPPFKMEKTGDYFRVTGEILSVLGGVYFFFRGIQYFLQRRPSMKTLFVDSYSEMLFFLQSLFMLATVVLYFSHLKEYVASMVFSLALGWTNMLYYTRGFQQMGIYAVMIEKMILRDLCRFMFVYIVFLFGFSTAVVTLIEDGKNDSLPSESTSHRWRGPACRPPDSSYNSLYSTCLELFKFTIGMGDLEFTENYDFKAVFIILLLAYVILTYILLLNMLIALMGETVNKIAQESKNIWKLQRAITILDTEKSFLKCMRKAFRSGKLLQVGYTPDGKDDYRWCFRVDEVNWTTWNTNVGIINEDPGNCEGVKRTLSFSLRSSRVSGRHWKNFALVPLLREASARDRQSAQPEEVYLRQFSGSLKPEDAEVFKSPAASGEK
Chain of Cytochrome P450 3A4 (P08684 whole entry): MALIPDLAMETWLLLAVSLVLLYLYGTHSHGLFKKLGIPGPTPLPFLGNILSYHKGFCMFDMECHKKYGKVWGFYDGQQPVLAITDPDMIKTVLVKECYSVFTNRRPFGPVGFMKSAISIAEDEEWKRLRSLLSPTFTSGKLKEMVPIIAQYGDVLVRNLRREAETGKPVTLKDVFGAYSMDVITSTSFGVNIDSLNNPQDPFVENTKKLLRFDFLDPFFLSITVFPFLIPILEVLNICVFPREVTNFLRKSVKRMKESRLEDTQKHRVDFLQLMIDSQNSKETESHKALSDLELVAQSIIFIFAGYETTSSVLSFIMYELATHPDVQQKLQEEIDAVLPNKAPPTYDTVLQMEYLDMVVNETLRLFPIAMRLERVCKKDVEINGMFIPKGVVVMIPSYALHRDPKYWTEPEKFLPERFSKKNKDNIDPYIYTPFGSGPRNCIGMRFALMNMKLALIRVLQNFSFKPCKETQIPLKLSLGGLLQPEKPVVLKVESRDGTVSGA

With `CC(C)(O)c1cnc(N2C[C@@]3(CCC[C@](C)(Cn4cnc5ccc(C#N)cc54)C3)OC2=O)cn1` [GSK2798745], in [1], the IC50 amounted to 0.002 µM. The same compound displayed a chromatographic logD in data set [2] of 4. Moreover, the Papp in data set [3] amounted to 38.5 ×10⁻⁶ cm/s.
As for `CC(C)(O)c1cnc(N2C[C@@]3(CC[C@@H](O)[C@](C)(Cn4cnc5ccc(C#N)cc54)C3)OC2=O)cn1`, the outcome in [4], in [5], in data set [6], in data set [8], in [9] and in data set [10] was inactive. The outcome in data set [11], in data set [12] and in data set [13] was inactive. In data set [1], this compound yielded an IC50 of 0.056 µM. Further, the “inhibition (INH)” value (in data set [7]; on Cytochrome P450 3A4) was “Not Active” each time. This compound also came in with a chromatographic logD in data set [2] of 2.6. In data set [3], the Papp was found to be 3.2 ×10⁻⁶ cm/s.
